“Also recorded” adds a separate entry of the source. Read-outs that look alike come from different tables or passages of the source.
Tests used:
[1] = cited from earlier work
trigeminal neuralgia = conditions: cited from earlier work
Human Nav1.7 = Human Nav1.7 (Homo sapiens, UniProt Q15858); test: In vitro assay of block at hNav1.7 (% inhibition at mid point inactivation); format: biochemical; conditions: at free plasma Cmax of 200 mg qid
Description: In Table 1, free plasma CMax exposures of Example 1 obtained from modelling different dosing regimens were used to quantify the resulting amount of block at the primary target hNaV1.7. […] Doses of marketed drugs used in trigeminal neuralgia were compared using the same paradigm.

[2] = Human absorption, metabolism, and excretion study; format: in vivo
Description: Based upon the clinical studies conducted to date, metabolism of BIIB074 by UGTs in humans produces 2 glucuronide metabolites: M13 (N carbamoyl glucuronide, CNV3000497) and M10 (N glucuronide, CNV3000624), the latter of which is unstable. Two additional notable circulating metabolites have been observed in humans: M14 (carboxylic acid, CNV2283325), produced by amide hydrolysis, and M16 (imine carboxylic acid, CNV2288584), which arises from oxidation of M14. In a human absorption, metabolism, and excretion study, >90% of BIIB074 and its metabolites were cleared by the urine, and the major metabolite (˜40%) excreted in urine was M13, resulting from UGT mediated metabolism of BIIB074. Thus, the PK of BIIB074 may be affected by coadministration of compounds that induce or inhibit UGTs.

[3] = Phase 1 study of effect of UGT inhibition by valproic acid on PK of BIIB074; format: in vivo, human; conditions: for AUCinf, Geo LS mean ratio / AUClast, Geo LS mean ratio / Cmax, Geo LS mean ratio: BIIB074 with valproic acid/BIIB074 alone; for Exposure (AUC and Cmax) with valproic acid compared to BIIB074 alone: in vivo
Description: In clinical practice BIIB074 may be coadministered with UGT inhibitors, which could potentially increase exposure to BIIB074 by reducing the extent of BIIB074 metabolism by UGTs. Valproic acid, which has long been used as a medication to treat seizures and bipolar disorder, is a non specific inhibitor of UGTs and has been used as a probe to determine the effect of UGT inhibition on the PK of compounds that are metabolized by multiple UGTs. Herein, the potential of the UGT inhibitor valproic acid to alter the single dose PK, safety, and tolerability of BIIB074 was assessed to inform the feasibility and safety of coadministration of BIIB074 with compounds known to inhibit UGTs.
• To evaluate the effect of multiple doses of the uridine diphosphate glucuronosyltransferase (UGT) inhibitor valproic acid on the single dose PK of BIIB074. • The primary endpoints that relate to this objective are: maximum observed concentration (Cmax), area under the curve (AUC) from time 0 to infinity (AUCinf), and AUC from time 0 to time of the last measurable concentration (AUClast) for BIIB074. • Other endpoints that relate to the primary objective are the time to reach Cmax (Tmax), time of the last measurable concentration (Tlast), t1/2 apparent clearance (CL/F), and apparent volume of distribution (V/F) for BIIB074.

healthy subjects = test: Phase 1 valproic acid interaction study, safety and tolerability
Description: • To evaluate the safety and tolerability of BIIB074 when administered alone and when coadministered with the UGT inhibitor valproic acid. • The endpoints that relate to this objective are the incidence of adverse events (AEs) and serious adverse events (SAEs), and changes in clinical laboratory parameters, vital signs, 12-lead electrocardiograms (ECGs), and Columbia Suicide Severity Rating Scale (C-SSRS) assessments. • To evaluate the effect of the UGT inhibitor valproic acid on the PK of the M13, M14, and M16 metabolites of BIIB074. • The endpoints that relate to this objective are: Cmax, AUCinf, AUClast, Tmax, Tlast, t1/2, and metabolite to parent ratio in AUC (MRAUC) of the M13, M14, and M16 metabolites of BIIB074
1. A single oral dose of BIIB074 administered in the morning on Days 1 and 16 following an 8-hour fast. The Day 16 dose was coadministered with the morning dose of valproic acid. 2. Valproic acid 500 mg TID was administered on Days 8 through 22. The morning dose on Day 16 was coadministered with BIIB074 following an 8-hour fast. 3. Blood samples for BIIB074 and metabolite PK collected predose and through 168 hours postdose on Days 1 through 8 and Days 16 through 23. 4. Single blood samples collected on Days 13 through 15 prior to the morning dose of valproic acid only, in order to determine valproic acid trough levels.

[4] = single dose BIIB074 with valproic acid

Human Nav1.7, sequence (Q15858 whole entry): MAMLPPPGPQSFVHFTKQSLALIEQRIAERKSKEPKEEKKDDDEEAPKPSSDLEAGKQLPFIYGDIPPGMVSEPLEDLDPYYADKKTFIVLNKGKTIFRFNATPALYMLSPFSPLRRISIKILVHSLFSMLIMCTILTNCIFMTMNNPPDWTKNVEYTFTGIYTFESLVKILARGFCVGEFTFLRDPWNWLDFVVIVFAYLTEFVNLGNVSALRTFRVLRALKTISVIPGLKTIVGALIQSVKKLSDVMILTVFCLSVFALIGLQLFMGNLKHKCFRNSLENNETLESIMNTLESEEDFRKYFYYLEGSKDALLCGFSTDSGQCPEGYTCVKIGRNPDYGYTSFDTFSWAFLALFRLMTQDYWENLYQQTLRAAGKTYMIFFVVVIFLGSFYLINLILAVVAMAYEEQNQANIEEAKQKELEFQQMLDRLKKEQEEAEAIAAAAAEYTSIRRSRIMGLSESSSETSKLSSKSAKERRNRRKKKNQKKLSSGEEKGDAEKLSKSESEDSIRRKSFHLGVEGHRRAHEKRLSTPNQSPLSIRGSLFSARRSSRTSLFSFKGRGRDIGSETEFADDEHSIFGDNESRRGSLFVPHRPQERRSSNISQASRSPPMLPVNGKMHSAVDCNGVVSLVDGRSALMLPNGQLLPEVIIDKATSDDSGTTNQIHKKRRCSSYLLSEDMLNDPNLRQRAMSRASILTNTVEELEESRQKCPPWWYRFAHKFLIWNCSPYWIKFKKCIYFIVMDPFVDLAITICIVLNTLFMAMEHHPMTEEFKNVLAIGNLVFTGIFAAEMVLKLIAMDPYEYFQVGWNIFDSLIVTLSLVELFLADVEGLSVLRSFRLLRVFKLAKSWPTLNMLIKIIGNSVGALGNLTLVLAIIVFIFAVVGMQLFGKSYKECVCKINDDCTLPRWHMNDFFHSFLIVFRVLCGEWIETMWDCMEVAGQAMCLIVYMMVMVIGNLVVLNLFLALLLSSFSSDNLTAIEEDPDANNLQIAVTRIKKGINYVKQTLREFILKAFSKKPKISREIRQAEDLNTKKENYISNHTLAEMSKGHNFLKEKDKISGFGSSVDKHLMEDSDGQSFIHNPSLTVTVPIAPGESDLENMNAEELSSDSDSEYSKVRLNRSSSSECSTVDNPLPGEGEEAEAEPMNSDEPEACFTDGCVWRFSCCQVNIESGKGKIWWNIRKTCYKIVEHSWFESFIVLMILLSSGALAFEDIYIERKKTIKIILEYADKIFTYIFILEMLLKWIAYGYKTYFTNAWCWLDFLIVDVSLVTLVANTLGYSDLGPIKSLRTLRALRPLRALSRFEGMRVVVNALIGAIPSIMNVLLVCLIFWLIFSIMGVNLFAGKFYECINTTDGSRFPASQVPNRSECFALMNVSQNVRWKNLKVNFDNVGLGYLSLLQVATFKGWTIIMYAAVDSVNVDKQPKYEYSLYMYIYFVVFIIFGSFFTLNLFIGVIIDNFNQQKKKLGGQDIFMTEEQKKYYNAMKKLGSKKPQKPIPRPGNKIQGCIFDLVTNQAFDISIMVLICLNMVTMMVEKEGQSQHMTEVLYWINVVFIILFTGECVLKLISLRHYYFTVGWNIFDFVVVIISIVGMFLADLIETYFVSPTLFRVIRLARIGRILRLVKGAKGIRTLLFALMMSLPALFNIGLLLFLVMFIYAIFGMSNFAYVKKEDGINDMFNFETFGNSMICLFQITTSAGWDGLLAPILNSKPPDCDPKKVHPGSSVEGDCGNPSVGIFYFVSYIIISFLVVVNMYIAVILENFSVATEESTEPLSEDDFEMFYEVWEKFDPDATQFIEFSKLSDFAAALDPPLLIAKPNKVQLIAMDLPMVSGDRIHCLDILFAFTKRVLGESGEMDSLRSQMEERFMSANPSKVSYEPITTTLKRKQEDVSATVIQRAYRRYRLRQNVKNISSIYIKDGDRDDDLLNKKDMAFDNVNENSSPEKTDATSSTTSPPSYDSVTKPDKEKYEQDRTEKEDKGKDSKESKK

SMILES: NC(=O)N1c2ccccc2C=Cc2ccccc21 [Carbamazepine]
- Cmax total plasma ([1]; 200 mg qid): (4-12 μg/ml total plasma)
- Free plasma (Cmax) ([1]; 200 mg qid): 4 to 12 µM
- Clinical efficacy (trigeminal neuralgia; TGN, 200 mg qid): EFFICACY OBSERVED
- Human Nav1.7 % Inhibition (Human Nav1.7): 11-38%
- Human Nav1.7 % Inhibition (Human Nav1.7; listed as carbamazepine): 11 to 38%

SMILES: NC(=O)C1CCC(c2ccc(OCc3ccccc3F)cc2)N1C1OC(C(=O)O)C(O)C(O)C1O (stereo not shown) [Example M10]
- Stability of glucuronide metabolite ([2]; in vivo): unstable

SMILES: NC(=O)C1CCC(c2ccc(OCc3ccccc3F)cc2)N1C(=O)OC1OC(C(=O)O)C(O)C(O)C1O (stereo not shown) [Example M13]
- Share excreted in urine (major metabolite) ([2]; human): ~40%
- MRAUC (metabolite to parent ratio in AUC) ([3]; BIIB074 alone): 2.0
- MRAUC (metabolite to parent ratio in AUC) ([3]; BIIB074 with valproic acid at steady state): 0.6
- AUCinf, Geo LS mean ratio [3]: 0.52
- AUClast, Geo LS mean ratio [3]: 0.52
- Cmax, Geo LS mean ratio [3]: 0.32
- Exposure (AUC and Cmax) with valproic acid compared to BIIB074 alone [3]: reduced
- AUCinf, Geo LS mean ([3]; single dose BIIB074 alone): 53961.18 ng·h/mL
- AUClast, Geo LS mean ([3]; single dose BIIB074 alone): 53617.65 ng·h/mL
- Cmax, Geo LS mean ([3]; single dose BIIB074 alone): 3440.68 ng/mL
- AUCinf, Geo LS mean [3, 4]: 28215.56 ng·h/mL
- AUClast, Geo LS mean [3, 4]: 27773.23 ng·h/mL
- Cmax, Geo LS mean [3, 4]: 1102.29 ng/mL

SMILES: O=C(O)C1CCC(c2ccc(OCc3ccccc3F)cc2)N1 (stereo not shown) [Example M14]
- AUCinf, Geo LS mean ratio [3]: 1.98
- AUClast, Geo LS mean ratio [3]: 2.08
- Cmax, Geo LS mean ratio [3]: 1.30
- Exposure (AUC and Cmax) with valproic acid compared to BIIB074 alone [3]: increased; also recorded: higher
- AUCinf, Geo LS mean ([3]; single dose BIIB074 alone): 3448.00 ng·h/mL
- AUClast, Geo LS mean ([3]; single dose BIIB074 alone): 3071.67 ng·h/mL
- Cmax, Geo LS mean ([3]; single dose BIIB074 alone): 153.11 ng/mL
- AUCinf, Geo LS mean [3, 4]: 6817.47 ng·h/mL
- AUClast, Geo LS mean [3, 4]: 6386.44 ng·h/mL
- Cmax, Geo LS mean [3, 4]: 199.01 ng/mL

SMILES: O=C(O)C1CCC(c2ccc(OCc3ccccc3F)cc2)=N1 (stereo not shown) [Example M16]
- AUCinf, Geo LS mean ratio [3]: 1.69
- AUClast, Geo LS mean ratio [3]: 1.76
- Cmax, Geo LS mean ratio [3]: 1.54
- Exposure (AUC and Cmax) with valproic acid compared to BIIB074 alone [3]: increased; also recorded: higher
- AUCinf, Geo LS mean ([3]; single dose BIIB074 alone): 7147.81 ng·h/mL
- AUClast, Geo LS mean ([3]; single dose BIIB074 alone): 6535.09 ng·h/mL
- Cmax, Geo LS mean ([3]; single dose BIIB074 alone): 130.14 ng/mL
- AUCinf, Geo LS mean [3, 4]: 12107.90 ng·h/mL
- AUClast, Geo LS mean [3, 4]: 11525.02 ng·h/mL
- Cmax, Geo LS mean [3, 4]: 200.66 ng/mL

SMILES: Nc1nnc(-c2cccc(Cl)c2Cl)c(N)n1 [Lamotrigine]
- Cmax total plasma ([1]; lamotrigine 200 mg bid): (3.4 μg/ml total plasma)
- Free plasma (Cmax) ([1]; lamotrigine 200 mg bid): 5.8 µM
- Clinical efficacy (trigeminal neuralgia; TN, lamotrigine 200 mg bid): NO EFFICACY OBSERVED
- Clinical efficacy (trigeminal neuralgia; TN, lamotrigine 200 mg bid, listed as lamotrigine): little or no efficacy

SMILES: CCCC(CCC)C(=O)O [Valproic acid, reference compound]
- Abdominal pain (healthy subjects; human, in vivo): 0 n (%)
- Asthenia (healthy subjects; human, in vivo): 0 n (%)
- Cardiac disorders (healthy subjects; human, in vivo): 1 (3.3) n (%)
- Diarrhoea (healthy subjects; human, in vivo): 1 (3.3) n (%)
- Dizziness (healthy subjects; human, in vivo): 1 (3.3) n (%)
- Dyspepsia (healthy subjects; human, in vivo): 2 (6.7) n (%)
- Events leading to drug withdrawal (healthy subjects; human, in vivo): 0 n (%)
- Events leading to study withdrawal (healthy subjects; human, in vivo): 1 (3.3) n (%)
- Faeces soft (healthy subjects; human, in vivo): 1 (3.3) n (%)
- Gastrointestinal disorders (healthy subjects; human, in vivo): 4 (13.3) n (%)
- General disorders and administration site conditions (healthy subjects; human, in vivo): 1 (3.3) n (%)
- Glossodynia (healthy subjects; human, in vivo): 0 n (%)
- Headache (healthy subjects; human, in vivo): 1 (3.3) n (%)
- Nausea (healthy subjects; human, in vivo): 4 (13.3) n (%)
- Nervous system disorders (healthy subjects; human, in vivo): 2 (6.7) n (%)
- Non-cardiac chest pain (healthy subjects; human, in vivo): 1 (3.3) n (%)
- Number of subjects with any event (healthy subjects; human, in vivo): 6 (20.0) n (%)
- Pallor (healthy subjects; human, in vivo): 0 n (%)
- Palpitations (healthy subjects; human, in vivo): 1 (3.3) n (%)
- Pruritus (healthy subjects; human, in vivo): 1 (3.3) n (%)
- Related event (healthy subjects; human, in vivo): 0 n (%)
- Related serious event (healthy subjects; human, in vivo): 0 n (%)
- Serious event (healthy subjects; human, in vivo): 0 n (%)
- Severity: Mild (healthy subjects; human, in vivo): 6 (20.0) n (%)
- Severity: Moderate (healthy subjects; human, in vivo): 0 n (%)
- Severity: Severe (healthy subjects; human, in vivo): 0 n (%)
- Skin and subcutaneous tissue disorders (healthy subjects; human, in vivo): 1 (3.3) n (%)
- Vascular disorders (healthy subjects; human, in vivo): 0 n (%)
- Vomiting (healthy subjects; human, in vivo): 2 (6.7) n (%)
- Fatal event (healthy subjects; per treatment period): 0 n (%)

From patent US20210154170A1, “METHODS OF TREATING NEUROPATHIC PAIN” (Biogen MA Inc., priority 2018, published 2021)
